Reference: US20250018049A1, “COMPOUNDS FOR DEGRADING CYCLIN-DEPENDENT KINASE 2 VIA UBIQUITIN PROTEOSOME PATHWAY” (NIKANG THERAPEUTICS, INC., priority 2020, published 2025)

Experiments:
Format in all cases: cell-based
CDK2 [1] = biological target: T1, CDK2 (Homo sapiens, UniProt P24941); assay: NanoBRET CDK2 engagement assay; parameters: expressed in transfected cells; details: OVCAR3 cells with stable CDK2-Luciferase vector, 24 hours treatment
Summary of the method: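 OVCAR3 cells stably expressing CDK2-luciferase, in Opti-MEM with 1% FBS, treated 24 h at 37° C with compound from 3 μM in ½-log steps to 0.3 nM; NanoBRET tracer present for final 2 h. Donor/acceptor emission read; engagement normalized to DMSO as 100% signal, IC50 by curve fit.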

CDK2 [2] = biological target: T1, CDK2; assay: Phospho-Rb HTRF measurement in OVCAR3 cells (inhibition of CDK2); parameters: High-Throughput Measurement of Cellular Endogenous CDK2; endogenous in cells; host or cells: OVCAR3; details: pRB(S807/811) assay, 24 h compound treatment
CDK2 [3] = biological target: T1, CDK2; assay: CDK2 HTRF assay (cellular endogenous CDK2 level); parameters: High-Throughput Measurement of Cellular Endogenous CDK2; endogenous in cells; host or cells: OVCAR3; details: OVCAR-3; OVCAR3 cells, 24 hours, 0.3 to 10,000 nM; read-out: max degradation of CDK2
Method: Effects of compounds on cellular CDK2 level can be monitored by a high-throughput HTRF assay or traditional Western Blot assay.
To determine half maximal degradation concentration (DC50) values of compounds, cellular CDK2 level was measured in 96-well format using HTRF total CDK2 cellular kit (Cat #64CDK2TPEG) from Cisbio.
On Day 1, OVCAR3 cells were seeded into 96-well tissue-culture treated plates at 20,000 cells/well in 200 μL and incubated overnight at 37° C. in CO2 atmosphere. On Day 2 cells were treated with compounds at concentration ranging from 0.3 to 10,000 nM using HP D300 digital dispenser. 24 hours after compound treatment, cell culture media was removed by flicking the plate and tapping the plate against clean paper towel. Immediately 30 μL 1× lysis buffer was supplemented from the kit and the plate was incubated at room temperature on shaker for 30 min. After homogenization by pipetting up and down, 8 μL cell lysate from 96-well cell culture plate was transferred to 384-well small volume white detection plate. 2 μL premixed detection solution was added and the plate was covered with sealer. To prepare the detection solution, d2 conjugated-CDK2 antibody and Eu-cryptate conjugated CDK2 antibody were diluted into detection buffer following manufacturer's instruction. Detection plates were incubated overnight at room temperature and read on ClarioStar (BMG Labtech) in TR-FRET mode (665 nM and 620 nM). The TR-FRET ratio (665 nM/620 nM) was plotted against the compound concentration and normalized to DMSO controls. Half maximal degradation concentration (DC50) values were calculated with a four-parameter logistic fit using GraphPad Prism (version 8; La Jolla, CA). FIG. 1 provides a dose-response curve of Compound 1 in Compound Table I in cellular CDK2 HTRF assay. IC50 in FIG. 1 is the same as DC50. Compounds 1, 13, 16, 22, 23, 28, 34, 35, 36, 37, 38, 39, 42, 48, 50, 51, 53, 54, 55, 56, 57, 58, 59, 60, 61, 62, 63, 65, 66, 68, 69, 70 were tested and max degradation of CDK2 observed was from about 35% to about 90%.

Row | SMILES | IC50 (CDK2 [1]) | IC50 (CDK2 [2]) | Dmax (CDK2 [3])
1 | Cn1c(=O)n(C2CCC(=O)NC2=O)c2cccc(CCCOC3CCN(S(=O)(=O)N4CCC(Nc5ncc6ccc(=O)n(C7CCCC7)c6n5)CC4)CC3)c21 (stereo not drawn) [Compound 16, 3-(4-(3-((1-((4-((8-cyclopentyl-7-oxo-7,8-dihydropyrido[2,3-d]pyrimidin-2-yl)amino)-piperidin-1-yl)sulfonyl)piperidin-4-yl)oxy)propyl)-3-methyl-2-oxo-2,3-dihydro-1H-benzo[d]-imidazol-1-yl)piperidine-2,6-dione] | 320 nM | 495 nM | 35 to 90%
2 | CN(CCN(C)S(=O)(=O)N1CCC(Nc2ncc3ccc(=O)n(C4CCCC4)c3n2)CC1)Cc1ccc(N(C)c2cccc3c2C(=O)N(C2CCC(=O)NC2=O)C3=O)cc1 (stereo not drawn) [Compound 22, 4-((8-cyclopentyl-7-oxo-7,8-dihydropyrido[2,3-d]-pyrimidin-2-yl)amino)-N-(2-((4-((2-(2,6-dioxopiperidin-3-yl)-1,3-dioxoisoindolin-4-yl)(methyl)amino)benzyl)(methyl)amino)ethyl)-N-methylpiperidine-1-sulfonamide] | 903 nM | 798 nM | 35 to 90%
3 | CN(CCCN1CCC(c2cccc3c2n(C)c(=O)n3C2CCC(=O)NC2=O)CC1)S(=O)(=O)N1CCC(Nc2ncc3ccc(=O)n(C4CCCC4)c3n2)CC1 (stereo not drawn) [Compound 23, 4-((8-cyclopentyl-7-oxo-7,8-dihydropyrido[2,3-d]pyrimidin-2-yl)amino)-N-(3-(4-(1-(2,6-dioxo-piperidin-3-yl)-3-methyl-2-oxo-2,3-dihydro-1H-benzo[d]imidazol-4-yl)piperidin-1-yl)propyl)-N-methylpiperidine-1-sulfonamide] | < 1 nM | 13.6 nM | 35 to 90%
4 | O=C1CCC(N2Cc3cc(C4CCN(CC5CCN(c6cccc(S(=O)(=O)N7CCC(Nc8ncc9ccc(=O)n(C%10CCCC%10)c9n8)CC7)c6)CC5)CC4)ccc3C2=O)C(=O)N1 (stereo not drawn) [Compound 35, 3-(5-(1-((1-(3-((4-((8-cyclopentyl-7-oxo-7,8-dihydropyrido[2,3-d]pyrimidin-2-yl)amino)-piperidin-1-yl)sulfonyl)phenyl)piperidin-4-yl)-methyl)piperidin-4-yl)-1-oxoisoindolin-2-yl)piperidine-2,6-dione] | 139 nM | 71100 nM | 35 to 90%
5 | O=C1CCC(N2Cc3cc(N4CCN(CC5CCN(c6cccc(S(=O)(=O)N7CCC(Nc8ncc9ccc(=O)n(C%10CCCC%10)c9n8)CC7)c6)CC5)CC4)ccc3C2=O)C(=O)N1 (stereo not drawn) [Compound 36, 3-(5-(4-((1-(3-((4-((8-cyclopentyl-7-oxo-7,8-dihydropyrido[2,3-d]pyrimidin-2-yl)amino)-piperidin-1-yl)sulfonyl)phenyl)piperidin-4-yl)-methyl)piperazin-1-yl)-1-oxoisoindolin-2-yl)-piperidine-2,6-dione] | 212 nM | 25.7 nM | 35 to 90%
6 | O=C1CCC(N2Cc3cc(C4CN(Cc5cccc(S(=O)(=O)N6CCC(Nc7ncc8ccc(=O)n(C9CCCC9)c8n7)CC6)c5)C4)ccc3C2=O)C(=O)N1 (stereo not drawn) [Compound 37, 3-(5-(1-(3-((4-((8-cyclopentyl-7-oxo-7,8-dihydropyrido[2,3-d]pyrimidin-2-yl)amino)-piperidin-1-yl)sulfonyl)benzyl)azetidin-3-yl)-1-oxoisoindolin-2-yl)piperidine-2,6-dione] | 190 nM | 25.7 nM | 35 to 90%
7 | O=C1CCC(N2Cc3cc(N4CCC(CN5CCN(c6cccc(S(=O)(=O)N7CCC(Nc8ncc9ccc(=O)n(C%10CCCC%10)c9n8)CC7)c6)CC5)CC4)ccc3C2=O)C(=O)N1 (stereo not drawn) [Compound 38, 3-(5-(4-((4-(3-((4-((8-cyclopentyl-7-oxo-7,8-dihydropyrido[2,3-d]pyrimidin-2-yl)amino)-piperidin-1-yl)sulfonyl)phenyl)piperazin-1-yl)-methyl)piperidin-1-yl)-1-oxoisoindolin-2-yl)-piperidine-2,6-dione] | 42.3 nM | 11.1 nM | 35 to 90%
8 | Cn1c(=O)n(C2CCC(=O)NC2=O)c2cccc(C3CCN(C4CCN(c5cccc(S(=O)(=O)N6CCC(Nc7ncc8ccc(=O)n(C9CCCC9)c8n7)CC6)c5)CC4)CC3)c21 (stereo not drawn) [Compound 39, 3-(4-(1′-(3-((4-((8-cyclopentyl-7-oxo-7,8-dihydro-pyrido[2,3-d]pyrimidin-2-yl)amino)piperidin-1-yl)sulfonyl)phenyl)-[1,4′-bipiperidin]-4-yl)-3-methyl-2-oxo-2,3-dihydro-1H-benzo[d]imidazol-1-yl)piperidine-2,6-dione] | 94 nM | 490 nM | 35 to 90%
9 | O=C1CCC(N2Cc3cc(N4CCN(Cc5cccc(S(=O)(=O)N6CCC(Nc7ncc8ccc(=O)n(C9CCCC9)c8n7)CC6)c5)CC4)c(F)cc3C2=O)C(=O)N1 (stereo not drawn) [Compound 42, 3-(5-(4-(3-((4-((8-cyclopentyl-7-oxo-7,8-dihydropyrido[2,3-d]pyrimidin-2-yl)amino)-piperidin-1-yl)sulfonyl)benzyl)piperazin-1-yl)-6-fluoro-1-oxoisoindolin-2-yl)piperidine-2,6-dione] | 297 nM | 24.7 nM | 35 to 90%
10 | O=C1CCC(N2C(=O)c3cc(F)c(N4CCN(Cc5cccc(S(=O)(=O)N6CCC(Nc7ncc8ccc(=O)n(C9CCCC9)c8n7)CC6)c5)CC4)cc3C2=O)C(=O)N1 (stereo not drawn) [Compound 48, 5-(4-(3-((4-((8-cyclopentyl-7-oxo-7,8-dihydro-pyrido[2,3-d]pyrimidin-2-yl)amino)piperidin-1-yl)sulfonyl)-benzyl)piperazin-1-yl)-2-(2,6-dioxo-piperidin-3-yl)-6-fluoroisoindoline-1,3-dione] | 722 nM | 131 nM | 35 to 90%
11 | O=C1CCC(N2Cc3cc(N4CCN(Cc5cccc(S(=O)(=O)N6CCC(Nc7ncc8ccc(=O)n(C9CCCC9)c8n7)CC6)c5)CC4)ccc3C2=O)C(=O)N1 (stereo not drawn) [Compound 50, 3-(5-(4-(3-((4-((8-cyclopentyl-7-oxo-7,8-dihydropyrido[2,3-d]pyrimidin-2-yl)-amino)-piperidin-1-yl)sulfonyl)benzyl)-piperazin-1-yl)-1-oxoisoindolin-2-yl)piperidine-2,6-dione] | 289 nM | 49 nM | 35 to 90%
12 | O=C1CCC(N2Cc3cc(N4CC5CCC4CN5Cc4cccc(S(=O)(=O)N5CCC(Nc6ncc7ccc(=O)n(C8CCCC8)c7n6)CC5)c4)ccc3C2=O)C(=O)N1 (stereo not drawn) [Compound 51, 3-(5-(5-(3-((4-((8-cyclopentyl-7-oxo-7,8-dihydropyrido[2,3-d]pyrimidin-2-yl)amino)-piperidin-1-yl)sulfonyl)benzyl)-2,5-diazabicyclo[2.2.2]octan-2-yl)-1-oxoisoindolin-2-yl)piperidine-2,6-dione] | 198 nM | 154 nM | 35 to 90%
13 | O=C1CCC(N2Cc3cc(N4CC5CC4CN5Cc4cccc(S(=O)(=O)N5CCC(Nc6ncc7ccc(=O)n(C8CCCC8)c7n6)CC5)c4)ccc3C2=O)C(=O)N1 (stereo not drawn) [Compound 53, 3-(5-(5-(3-((4-((8-cyclopentyl-7-oxo-7,8-dihydropyrido[2,3-d]pyrimidin-2-yl)amino)-piperidin-1-yl)sulfonyl)benzyl)-2,5-diazabicyclo-[2.2.1]heptan-2-yl)-1-oxoisoindolin-2-yl)-piperidine-2,6-dione] | 152 nM | 259 nM | 35 to 90%
